Assay results: patent publication US20090036434A1, “Substituted aryl and heteroaryl derivatives as modulators of metabolism and the prophylaxis and treatment of disorders related thereto” (Arena Pharmaceuticals, Inc., priority 2004, published 2009)

Key:
RUP3 [1] = target: T1, RUP3 (Mus musculus, UniProt Q7TQP3); assay: Oral glucose tolerance test (oGTT) in mice; format: in vivo; details: for Mean % Inhibition of Glucose Excursion: male C57bl/6J mice, dextrose 3 g/Kg oral; for Blood glucose after glucose challenge: male C57bl/6J mice, 1, 3 or 10 mg/Kg p.o.
T1 construct: randomly grouped (n=5) to receive a RUP3 agonist (either Compound B3 or B124); from tissue; host or cells: whole animal (male C57bl/6J mice), in vivo
T1 sequence (Q7TQP3 1-335): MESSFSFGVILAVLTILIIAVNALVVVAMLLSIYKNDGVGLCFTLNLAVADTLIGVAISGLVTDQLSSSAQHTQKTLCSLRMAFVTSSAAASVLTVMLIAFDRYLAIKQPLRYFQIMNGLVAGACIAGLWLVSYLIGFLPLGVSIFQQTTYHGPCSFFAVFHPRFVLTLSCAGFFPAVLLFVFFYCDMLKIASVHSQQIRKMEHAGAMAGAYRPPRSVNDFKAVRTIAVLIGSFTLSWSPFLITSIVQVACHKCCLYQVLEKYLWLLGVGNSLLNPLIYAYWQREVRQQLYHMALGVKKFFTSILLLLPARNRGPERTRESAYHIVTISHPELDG
Protocol: Male C57bl/6J mice at approximately 8 weeks of age were fasted for 18 hours and randomly grouped (n=5) to receive a RUP3 agonist (either Compound B3 or B124) at 1, 3 or 10 mg/Kg. Compounds were delivered orally via a gavage needle (p.o., volume 10 mL/Kg). At time 0, levels of blood glucose were assessed using a glucometer (Elite XL, Bayer), and mice were administered either vehicle (20% hydroxypropyl-beta-cyclodextrin) or test compound. Thirty minutes after administration of test compound, levels of blood glucose were again assessed, and mice were administered dextrose orally at a dose of 3 g/Kg. Blood glucose measurements were then taken 20 min, 40 min, 60 min and 120 min after this time.

RUP3 [2] = target: T2, RUP3 (Homo sapiens, UniProt Q8TDV5); assay: Melanophore dispersion assay, RUP3 dose responses; format: cell-based; details: melanophores transfected with RUP3 expression vector
T2 construct: expressed in transfected cells; host or cells: melanophores (cultured per Potenza and Lerner 1992), electroporated with the RUP3 expression vector (pCMV)
T2 sequence (Q8TDV5 1-335): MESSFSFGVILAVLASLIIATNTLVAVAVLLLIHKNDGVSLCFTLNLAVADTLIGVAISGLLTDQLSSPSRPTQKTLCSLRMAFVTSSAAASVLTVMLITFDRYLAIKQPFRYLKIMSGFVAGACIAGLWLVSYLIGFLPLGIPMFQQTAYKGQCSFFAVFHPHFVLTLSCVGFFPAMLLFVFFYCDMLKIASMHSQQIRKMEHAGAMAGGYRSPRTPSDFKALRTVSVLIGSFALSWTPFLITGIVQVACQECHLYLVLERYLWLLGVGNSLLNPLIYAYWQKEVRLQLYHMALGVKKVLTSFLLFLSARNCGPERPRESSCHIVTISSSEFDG
Protocol: Melanophores are maintained in culture as reported by Potenza, M. N. and Lerner, M. R., in Pigment Cell Research, Vol. 5, 372-378, 1992 and transfected with the RUP3 expression vector (pCMV) using electroporation. Following electroporation, the transfected cells are plated into 96 well plates for the assay. The cells are then allowed to grow for 48 hours in order to both recover from the electroporation procedure and attain maximal receptor expression levels.
On the assay day, the growth medium on the cells is replaced with serum-free buffer containing 10 nM melatonin. The melatonin acts via an endogenous Gi-coupled GPCR in the melanophores to lower intracellular cAMP levels. In response to lowered cAMP levels, the melanophores translocate their pigment to the center of the cell. The net effect of this is a significant decrease in the absorbance reading of the cell monolayer in the well, measured at […].
After a 1-hour incubation in melatonin, the cells become completely pigment-aggregated. At this point a baseline absorbance reading is collected. Serial dilutions of test compounds are then added to the plate and compounds that stimulate RUP3 produce increases in intracellular cAMP levels. In response to these increased cAMP levels, the melanophores translocate their pigment back into the cell periphery. After one hour, stimulated cells are fully pigment-dispersed. The cell monolayer in the dispersed state absorbs much more light in the 600-650 nm range. The measured increase in absorbance compared to the baseline reading allows one to quantitate the degree of receptor stimulation and plot a dose-response curve.
The compounds in the above examples were screened using the melanophore dispersion assay, as described above.

Compound	Mean % Inhibition of Glucose Excursion (RUP3 [1]; 1 mg/Kg p.o.) [%]	Mean % Inhibition of Glucose Excursion (RUP3 [1]; 3 mg/Kg p.o.) [%]	Mean % Inhibition of Glucose Excursion (RUP3 [1]; 10 mg/Kg p.o.) [%]	Blood glucose after glucose challenge (RUP3 [1])	EC50 (RUP3 [2]) [nM]
CC(C)OC(=O)N1CCC(Oc2cc(Nc3ccc(S(C)(=O)=O)cc3F)ncn2)CC1 [Compound B3, 4-[6-(2-Fluoro-4-methanesulfonyl-phenylamino)-pyrimidin-4-yloxy]-piperidine-1-carboxylic acid isopropyl ester]	14.83	22.03	39.31	lowered blood glucose in a dose-dependent manner	
Cc1ccc(Nc2cc(OC3CCN(C(=O)OC(C)(C)C)CC3)ncn2)cc1F [Compound B16, 4-[6-(3-Fluoro-4-methyl-phenylamino)-pyrimidin-4-yloxy]-piperidine-1-carboxylic acid tert-butyl ester]					62
COc1ccc(Nc2cc(OC3CCN(C(=O)OC(C)(C)C)CC3)ncn2)cc1F [Compound B21, 4-[6-(3-Fluoro-4-methoxy-phenylamino)-pyrimidin-4-yloxy]-piperidine-1-carboxylic acid tert-butyl ester]					128
CCCNc1ccc(Nc2cc(OC3CCN(C(=O)OC(C)C)CC3)ncn2)c(C)c1 [Compound B124, 4-[6-(2-Methyl-4-propylamino-phenylamino)-pyrimidin-4-yloxy]-piperidine-1-carboxylic acid isopropyl ester]	0	5.49	21.94	lowered blood glucose in a dose-dependent manner	
CC(C)OC(=O)N1CCC(Oc2cc(Oc3ccc(Br)cc3F)ncn2)CC1 [Compound B143, 4-[6-(4-Bromo-2-fluoro-phenoxy)-pyrimidin-4-yloxy]-piperidine-1-carboxylic acidisopropyl ester]					48
